The values that follow come from patent US20050123603A1, “Natural menaquinone 7 compositions” (Natural ASA, priority 2003, published 2005).

Data set [1] has as its system under-carboxylated osteocalcin (ucOC). Kind of data set: serum under-carboxylated osteocalcin (ucOC) during 6-week supplementation. Format: in vivo, human. As for the experimental part:
(§1) An open study was conducted in which 12 volunteers were randomized in two groups receiving either 180 μg MK-7 (menaquinone 7, 0.27 μmol) or 150 μg K1 (0.33 μmol) per day. The MK-7 was obtained from 2 nattoK2 capsules (Natural ASA) per day, the K1 from a pharmacological preparation (Roche). The supplements were taken at 18.00 h of each day during the 6-week study period. Blood was taken between 08.00 and 09.00 h of days 0 (baseline), 3, 7, 14, 21, 28, 35, and 42. A non-treated control group (n=3) served as a reference group, with blood drawings on days 0, 14, 28, and 42.
(§2) Measurements: vitamin K1, MK-7, under-carboxylated osteocalcin (ucOC) and carboxylated osteocalcin (cOC).
(§3) Study population: 6 men and 6 women, aged 55-60 (women postmenopausal). Non-treated controls: 1 man, 2 women in the same age range.

In data set [2] the test system is osteocalcin. Kind of data set: bone turnover measured as ucOC+cOC during 6-week supplementation. The data set is classed as in vivo, human. As for the experimental part:
as §1, §2, §3
(§4) These values are needed to calculate the vitamin K-status in bone (the ratio cOC/ucOC) and to estimate the bone metabolic activity (cOC+ucOC). Here a remarkable difference between the effects of K1 and nattoK2 (i.e.: MK-7) was found: whereas cOC was increased by K1 supplementation, it was decreased by nattoK2. The importance of this finding will become clear from FIGS. 9 and 10.

In data set [3] the test system is osteocalcin. Kind of data set: vitamin K status of bone, cOC/ucOC ratio, during 6-week supplementation. The data set is classed as in vivo, human. Here is the method: as §1, §2, §3, §4
The test system of the next data set is bone loss. The note with it: postmenopausal women, intervention studies; cited from earlier work.
Data set [4] is described as follows: serum vitamin K (K1, MK-7) during 6-week daily supplementation with nattoK2 capsules or K1. Format: in vivo, human. Here is the method:
as §1, §2, §3
MK-7 and K1 have different molecular weights (650 and 450, respectively). Therefore, all doses and concentrations were calculated on a molar basis. Since the daily dose of MK-7 from natto was 18% lower than that from K1 (0.27 and 0.33 μmol/day, respectively), it should be kept in mind that the expected results for natto capsules are similarly lower compared to those for K1. […] The normal ranges for K1 and MK-7 in non-treated subjects are between 500 and 1000 pmol/L (FIG. 5C). […] Due to the limited number of participants, the mean baseline levels in the various groups may differ.

Data set [5] deals with carboxylated osteocalcin (cOC). Kind of data set: serum carboxylated osteocalcin (cOC) during 6-week supplementation. The data set is classed as in vivo, human. The note with it: 6-week daily supplementation, K1 150 μg or 180 μg MK-7 from nattoK2, FIG. 8. As for the experimental part: as §1, §2, §3

Each structure is given as a SMILES string.

Turning to `CC1=C(C/C=C(\C)CCC[C@H](C)CCC[C@H](C)CCCC(C)C)C(=O)c2ccccc2C1=O` [K1], the “time to reach decreased ucOC value” in data set [1] (K1 150 μg per day) is given as “within three days”. Also, the “serum ucOC after treatment” value in data set [1] (K1 150 μg per day, value reached within three days) was 1.7 µg/L. In addition, in data set [1] (K1 group), the “serum ucOC at baseline” value was 2.1 µg/L. In addition, the “bone turnover measured as ucOC+cOC, end of regimen” value in the data set on osteocalcin [2] (K1 150 μg per day, 6 weeks) is recorded as 5.33. For the same compound, in the data set with osteocalcin [2] (K1 group), the “bone turnover measured as ucOC+cOC, start of regimen” value is reported as 5.28. Further, the “time to plateau levels of the cOC/ucOC ratio” value in the data set on osteocalcin [3] (K1 supplementation) stood at 3 days. For the same compound, the “lower rate of bone loss in supplemented groups” value in the data set on bone loss is 40%. The “serum K1 level, plateau value” in data set [4] (K1 150 μg (0.33 μmol) per day, blood taken about 15 h after intake, mean) is “around 2000 pmol/L”. For the same compound, in data set [4] (K1 150 μg per day), the “serum K1 level at 15 h after ingestion” value is listed as “near-baseline levels” and the “time to plateau of serum K1” value was “within the first three days”. Moreover, the “increase in total vitamin K status relative to baseline (mean plateau value)” value in data set [4] (K1 150 μg per day, 6 weeks, FIG. 6) is recorded as 1500 pmol/L. In data set [4] (K1 group, day 0, mean), the “serum K1 level at baseline” value worked out at 816 pmol/L. In addition, the “treatment-induced change in serum carboxylated osteocalcin (cOC)” value in data set [5] was “increased”.
As for `CC(C)=CCC/C(C)=C/CC/C(C)=C/CC/C(C)=C/CC/C(C)=C/CC/C(C)=C/CC/C(C)=C/CC1=C(C)C(=O)c2ccccc2C1=O` [menaquinone 7, (all-E)-2-(3,7,11,15,19,23,27-Heptamethyl-2,6,10,14,18,22,26-octacosaheptaenyl)-3-methyl-1,4-naphthalenedione], in the data set on osteocalcin [3] (menaquinone 7 supplementation, ratio increased gradually, no levelling off), the “time at which mean cOC/ucOC ratio crosses the K1 curve” value stood at 5 week.
